According to ChEMBL document CHEMBL3885861, “Open TG-GATES”:

Species on record: Rattus norvegicus
Test: Open TG-GATES - Regimen: Single
Assay type: toxicity, organism-based, Sprague-Dawley
Set-up: regimen Single, gender Male, age 6 weeks
Conditions: in vivo, po, route gavage; for APTT / Bas / Eos / Fbg / Hb / Ht / Lym / MCH / MCHC / MCV / Mono / Neu / PT / Plat / RBC / Ret / WBC: tissue Blood; for KIDNEY_L / KIDNEY_R / KIDNEY_TOTAL: tissue Kidney; for LIVER: tissue Liver; for A/G / ALP / ALT / AST / BUN / CRE / Ca / Cl / DBIL / GLC / IP / K / LDH / Na / PL / RALB / TBIL / TC / TG / TP / gamma-GTP: tissue Plasma
[1] = 300 mg/kg, 3 h, dose level Middle
[2] = 300 mg/kg, 6 h, dose level Middle
[3] = 300 mg/kg, 9 h, dose level Middle
[4] = 300 mg/kg, 24 h, dose level Middle
[5] = 1000 mg/kg, 3 h, dose level High
[6] = 1000 mg/kg, 6 h, dose level High
[7] = 1000 mg/kg, 9 h, dose level High
[8] = 1000 mg/kg, 24 h, dose level High

## CN(C)[C@@H]1C(O)=C(C(N)=O)C(=O)[C@@]2(O)C(O)=C3C(=O)c4c(O)cccc4[C@@](C)(O)[C@H]3C[C@@H]12 [TETRACYCLINE]
[1]
  TERMINAL_BW: 186.7 g
  APTT: 16.4 s
  Bas: 0%
  Eos: 0.6%
  Fbg: 198 mg/dL
  Hb: 13.6 g/dL
  Ht: 41%
  Lym: 76.4%
  MCH: 21.9 pg
  MCHC: 33.1%
  MCV: 66.2 fL
  Mono: 8.4%
  Neu: 14.8%
  PT: 12.3 s
  Plat: 97.2 x10_4/uL
  RBC: 619.2 x10_4/ul
  Ret: 10%
  WBC: 122.2 x10_2/uL
  KIDNEY_L: 0.9 g
  KIDNEY_R: 0.9 g
  KIDNEY_TOTAL: 1.8 g
  LIVER: 9 g
  A/G: 1.9
  ALP: 940.2 IU/L
  ALT: 42.2 IU/L
  AST: 74.4 IU/L
  BUN: 13.2 mg/dL
  CRE: 0.5 mg/dL
  Ca: 10.9 mg/dL
  Cl: 104.6 meq/L
  DBIL: 0.026 mg/dL
  GLC: 179.6 mg/dL
  IP: 11.5 mg/dL
  K: 5.4 meq/L
  LDH: 103 IU/L
  Na: 137.2 meq/L
  PL: 129.6 mg/dL
  RALB: 3.6 g/dL
  TBIL: 0.4 mg/dL
  TC: 71.4 mg/dL
  TG: 39.4 mg/dL
  TP: 5.5 g/dL
  gamma-GTP: 1.6 IU/L
[2]
  TERMINAL_BW: 183.9 g
  APTT: 17.1 s
  Bas: 0%
  Eos: 0.6%
  Fbg: 206.8 mg/dL
  Hb: 13.4 g/dL
  Ht: 40.3%
  Lym: 78.6%
  MCH: 22.5 pg
  MCHC: 33.3%
  MCV: 67.7 fL
  Mono: 5.6%
  Neu: 15.4%
  PT: 12.1 s
  Plat: 103.8 x10_4/uL
  RBC: 595.2 x10_4/ul
  Ret: 10.1%
  WBC: 91.7 x10_2/uL
  KIDNEY_L: 0.9 g
  KIDNEY_R: 0.9 g
  KIDNEY_TOTAL: 1.7 g
  LIVER: 8.3 g
  A/G: 2.1
  ALP: 930.4 IU/L
  ALT: 36.4 IU/L
  AST: 72.4 IU/L
  BUN: 12.4 mg/dL
  CRE: 0.4 mg/dL
  Ca: 10.7 mg/dL
  Cl: 106 meq/L
  DBIL: 0.012 mg/dL
  GLC: 193.8 mg/dL
  IP: 11.1 mg/dL
  K: 5.2 meq/L
  LDH: 104.4 IU/L
  Na: 137.2 meq/L
  PL: 130.6 mg/dL
  RALB: 3.6 g/dL
  TBIL: 0.4 mg/dL
  TC: 72.8 mg/dL
  TG: 49.4 mg/dL
  TP: 5.4 g/dL
  gamma-GTP: 1.4 IU/L
[3]
  TERMINAL_BW: 180.6 g
  APTT: 16.6 s
  Bas: 0%
  Eos: 0.6%
  Fbg: 211 mg/dL
  Hb: 13.1 g/dL
  Ht: 39.7%
  Lym: 79.6%
  MCH: 21.7 pg
  MCHC: 33.1%
  MCV: 65.7 fL
  Mono: 7.6%
  Neu: 12.4%
  PT: 12.3 s
  Plat: 102.2 x10_4/uL
  RBC: 603.4 x10_4/ul
  Ret: 9.1%
  WBC: 101.6 x10_2/uL
  KIDNEY_L: 0.8 g
  KIDNEY_R: 0.8 g
  KIDNEY_TOTAL: 1.7 g
  LIVER: 7.5 g
  A/G: 2.4
  ALP: 849.2 IU/L
  ALT: 37 IU/L
  AST: 71.2 IU/L
  BUN: 13.4 mg/dL
  CRE: 0.4 mg/dL
  Ca: 10.6 mg/dL
  Cl: 106.2 meq/L
  DBIL: 0.036 mg/dL
  GLC: 182.8 mg/dL
  IP: 10.4 mg/dL
  K: 4.7 meq/L
  LDH: 92.6 IU/L
  Na: 138.4 meq/L
  PL: 126.8 mg/dL
  RALB: 3.8 g/dL
  TBIL: 0.4 mg/dL
  TC: 75.6 mg/dL
  TG: 24.6 mg/dL
  TP: 5.4 g/dL
  gamma-GTP: 2.2 IU/L
[4]
  TERMINAL_BW: 200.3 g
  APTT: 15.9 s
  Bas: 0%
  Eos: 0.8%
  Fbg: 202.8 mg/dL
  Hb: 13 g/dL
  Ht: 39.3%
  Lym: 83.6%
  MCH: 21.6 pg
  MCHC: 33.2%
  MCV: 65 fL
  Mono: 8.2%
  Neu: 7.4%
  PT: 12.1 s
  Plat: 117.3 x10_4/uL
  RBC: 605 x10_4/ul
  Ret: 9.9%
  WBC: 102.9 x10_2/uL
  KIDNEY_L: 0.9 g
  KIDNEY_R: 0.9 g
  KIDNEY_TOTAL: 1.9 g
  LIVER: 8.5 g
  A/G: 2.2
  ALP: 1031.8 IU/L
  ALT: 41.6 IU/L
  AST: 73.8 IU/L
  BUN: 18.4 mg/dL
  CRE: 0.5 mg/dL
  Ca: 11.3 mg/dL
  Cl: 105 meq/L
  DBIL: 0.016 mg/dL
  GLC: 184.4 mg/dL
  IP: 9.9 mg/dL
  K: 5 meq/L
  LDH: 96.8 IU/L
  Na: 141 meq/L
  PL: 149.2 mg/dL
  RALB: 3.8 g/dL
  TBIL: 0.4 mg/dL
  TC: 80.8 mg/dL
  TG: 57.2 mg/dL
  TP: 5.6 g/dL
  gamma-GTP: 1.4 IU/L
[5]
  TERMINAL_BW: 185.9 g
  APTT: 15.7 s
  Bas: 0%
  Eos: 0.4%
  Fbg: 217.2 mg/dL
  Hb: 13.5 g/dL
  Ht: 40.5%
  Lym: 79.8%
  MCH: 22.1 pg
  MCHC: 33.3%
  MCV: 66.4 fL
  Mono: 6.4%
  Neu: 13.2%
  PT: 11.9 s
  Plat: 103.4 x10_4/uL
  RBC: 610 x10_4/ul
  Ret: 9.5%
  WBC: 108.1 x10_2/uL
  KIDNEY_L: 0.8 g
  KIDNEY_R: 0.8 g
  KIDNEY_TOTAL: 1.7 g
  LIVER: 8.5 g
  A/G: 2.2
  ALP: 770.2 IU/L
  ALT: 44 IU/L
  AST: 72.8 IU/L
  BUN: 15.6 mg/dL
  CRE: 0.5 mg/dL
  Ca: 11.1 mg/dL
  Cl: 105.8 meq/L
  DBIL: 0.03 mg/dL
  GLC: 184.8 mg/dL
  IP: 12 mg/dL
  K: 5 meq/L
  LDH: 142.4 IU/L
  Na: 138 meq/L
  PL: 132 mg/dL
  RALB: 3.8 g/dL
  TBIL: 0.6 mg/dL
  TC: 77.8 mg/dL
  TG: 36.8 mg/dL
  TP: 5.6 g/dL
  gamma-GTP: 1.8 IU/L
[6]
  TERMINAL_BW: 184.3 g
  APTT: 17.2 s
  Bas: 0%
  Eos: 0.4%
  Fbg: 193 mg/dL
  Hb: 13.4 g/dL
  Ht: 40.4%
  Lym: 79%
  MCH: 21.9 pg
  MCHC: 33.1%
  MCV: 66.1 fL
  Mono: 7.2%
  Neu: 13.4%
  PT: 12.2 s
  Plat: 101.1 x10_4/uL
  RBC: 612.4 x10_4/ul
  Ret: 10.1%
  WBC: 100.4 x10_2/uL
  KIDNEY_L: 0.9 g
  KIDNEY_R: 0.9 g
  KIDNEY_TOTAL: 1.8 g
  LIVER: 8.1 g
  A/G: 1.8
  ALP: 872.8 IU/L
  ALT: 39 IU/L
  AST: 74.2 IU/L
  BUN: 13.4 mg/dL
  CRE: 0.4 mg/dL
  Ca: 10.9 mg/dL
  Cl: 106.4 meq/L
  DBIL: 0.018 mg/dL
  GLC: 186.6 mg/dL
  IP: 11.9 mg/dL
  K: 5.4 meq/L
  LDH: 128.4 IU/L
  Na: 137.4 meq/L
  PL: 127 mg/dL
  RALB: 3.4 g/dL
  TBIL: 0.4 mg/dL
  TC: 71.2 mg/dL
  TG: 36.2 mg/dL
  TP: 5.2 g/dL
  gamma-GTP: 1.6 IU/L
[7]
  TERMINAL_BW: 180.6 g
  APTT: 16.8 s
  Bas: 0%
  Eos: 0.2%
  Fbg: 199.2 mg/dL
  Hb: 13.1 g/dL
  Ht: 40%
  Lym: 83.4%
  MCH: 21.5 pg
  MCHC: 32.8%
  MCV: 65.4 fL
  Mono: 5.8%
  Neu: 11%
  PT: 12.3 s
  Plat: 104 x10_4/uL
  RBC: 610.6 x10_4/ul
  Ret: 8.9%
  WBC: 66.5 x10_2/uL
  KIDNEY_L: 0.8 g
  KIDNEY_R: 0.8 g
  KIDNEY_TOTAL: 1.6 g
  LIVER: 7.7 g
  A/G: 2.2
  ALP: 769.6 IU/L
  ALT: 33.8 IU/L
  AST: 66.4 IU/L
  BUN: 12.8 mg/dL
  CRE: 0.4 mg/dL
  Ca: 11 mg/dL
  Cl: 107.4 meq/L
  DBIL: 0.044 mg/dL
  GLC: 192.4 mg/dL
  IP: 11.5 mg/dL
  K: 4.9 meq/L
  LDH: 136.2 IU/L
  Na: 139.8 meq/L
  PL: 128.8 mg/dL
  RALB: 3.7 g/dL
  TBIL: 0.4 mg/dL
  TC: 69.4 mg/dL
  TG: 25.6 mg/dL
  TP: 5.4 g/dL
  gamma-GTP: 1.2 IU/L
[8]
  TERMINAL_BW: 200.2 g
  APTT: 16.8 s
  Bas: 0%
  Eos: 0.6%
  Fbg: 208.8 mg/dL
  Hb: 13.4 g/dL
  Ht: 40.5%
  Lym: 84.2%
  MCH: 21.5 pg
  MCHC: 33%
  MCV: 65.1 fL
  Mono: 7%
  Neu: 8.2%
  PT: 11.9 s
  Plat: 105 x10_4/uL
  RBC: 621.8 x10_4/ul
  Ret: 8.9%
  WBC: 88.7 x10_2/uL
  KIDNEY_L: 0.9 g
  KIDNEY_R: 0.9 g
  KIDNEY_TOTAL: 1.9 g
  LIVER: 8.9 g
  A/G: 2.2
  ALP: 948 IU/L
  ALT: 44 IU/L
  AST: 77.2 IU/L
  BUN: 17.8 mg/dL
  CRE: 0.5 mg/dL
  Ca: 11.2 mg/dL
  Cl: 105.6 meq/L
  DBIL: 0.006 mg/dL
  GLC: 180.4 mg/dL
  IP: 9.8 mg/dL
  K: 5 meq/L
  LDH: 147 IU/L
  Na: 141.6 meq/L
  PL: 142.6 mg/dL
  RALB: 3.8 g/dL
  TBIL: 0.3 mg/dL
  TC: 74 mg/dL
  TG: 50.2 mg/dL
  TP: 5.6 g/dL
  gamma-GTP: 1 IU/L
